This is an account of results in US8722849B2, “Polypeptides” (Novo Nordisk A/S, priority 2011, dated 2014).

pEC50: −log10 of the molar value. Values after ≈ are worked out from the molar mass of the structure shown. Read-outs that look alike come from different tables or passages of the source. Starred links: 1 amine or outer side, 2 acyl side, 3 side chain; linkers in the order of their positions; H or OH if unused. Positions of bridges follow the written chain, without caps; N, C: chain ends. Residues, ends and D or L forms follow the SMILES beside them. *: point of attachment. C20 diacid = O=C(O)CCCCCCCCCCCCCCCCCCC(=O)*; C18 diacid = O=C(O)CCCCCCCCCCCCCCCCC(=O)*; γGlu = O=C(O)[C@H](CCC(=O)[*:2])N[*:1]

The target of data set [1] is T1, human calcitonin receptor (Homo sapiens, UniProt P30988).
T1 construct: expressed in transfected cells; host or cells: BHK570
T1 sequence (P30988 25-474): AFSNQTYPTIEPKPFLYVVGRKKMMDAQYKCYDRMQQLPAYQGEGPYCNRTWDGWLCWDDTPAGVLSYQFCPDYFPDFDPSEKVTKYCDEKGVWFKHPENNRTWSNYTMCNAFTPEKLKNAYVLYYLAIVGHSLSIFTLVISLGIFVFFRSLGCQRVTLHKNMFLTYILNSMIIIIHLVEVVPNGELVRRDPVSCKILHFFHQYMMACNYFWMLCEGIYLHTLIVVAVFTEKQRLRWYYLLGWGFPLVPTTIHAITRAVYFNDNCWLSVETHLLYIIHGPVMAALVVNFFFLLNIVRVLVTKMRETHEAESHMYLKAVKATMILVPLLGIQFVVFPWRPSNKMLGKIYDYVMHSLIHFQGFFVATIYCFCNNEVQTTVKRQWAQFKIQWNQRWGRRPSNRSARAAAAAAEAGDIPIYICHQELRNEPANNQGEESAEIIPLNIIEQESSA
The experiment in a line: Assay (II)a functional CRE-luciferase assay, human calcitonin receptor. It counts as cell-based. The note with it: Table 7; human calcitonin (CTa) receptor.

Data set [2] has as its target T2, human amylin receptor (amylin 3(a) receptor: human calcitonin receptor + RAMP-3) (Homo sapiens, UniProt O60896+P30988).
T2 construct: expressed in transfected cells; host or cells: BHK570
T2 sequence (P30988 25-474): T1 sequence (P30988 25-474)
T2 sequence (O60896 24-148 partner): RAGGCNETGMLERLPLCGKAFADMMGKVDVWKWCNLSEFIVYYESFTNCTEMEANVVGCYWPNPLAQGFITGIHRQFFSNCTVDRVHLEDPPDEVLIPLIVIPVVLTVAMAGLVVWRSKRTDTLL
The experiment in a line: Assay (II)a functional CRE-luciferase assay, human amylin receptor. It counts as cell-based. The note with it: Table 2; BHK amylin 3(a)-receptor/CRE-luc cells.

The nature of data set [3]: Assay (III) ThT fibrillation assay for physical stability. It counts as physicochemical. Conditions: ThT fibrillation assay. In short, it runs like this: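 Freshly prepared formulations, pH-adjusted, with 1 μM ThT; four or eight replicates incubated at 37 °C under 960 rpm orbital shaking. Fluorescence (ex 444/em 485 nm) read every 20 min; […]. Peptide concentration measured by RP-HPLC before and after the run.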

The nature of data set [4]: Assay (IV) determination of solubility. Format: physicochemical. In short, it runs like this: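 Eight 100 mM buffers (glycylglycine pH 3.0–5.0, bistrispropane pH 6.0–8.0) each received an equal volume of polypeptide dissolved in water at ~500 nmol/ml. Soluble polypeptide was measured by HPLC following 18 hours at room temperature and centrifugation.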
The mark [5] stands for this setting: bistrispropane buffer, pH 6, pH 6.0, read-out: Solubility pH 6.0.
The mark [6] stands for this setting: bistrispropane buffer, pH 6.5, pH 6.5, read-out: Solubility pH 6.5.
Where [7] appears, read: bistrispropane buffer, pH 7, pH 7.0, 18 hours at room temperature, Table 3, read-out: Solubility pH 7.0.
[8] abbreviates: bistrispropane buffer, pH 7, pH 7.0, read-out: Solubility pH 7.0.
Setting [9] is: bistrispropane buffer, pH 7.5, pH 7.5, read-out: Solubility pH 7.5.
Setting [10] is: bistrispropane buffer, pH 8, pH 8.0, read-out: Solubility pH 8.0.
The mark [11] stands for this setting: glycylglycine buffer, pH 3, pH 3.0, read-out: Solubility pH 3.0.
Setting [12] is: glycylglycine buffer, pH 4, pH 4.0, 18 hours at room temperature, Table 2, read-out: Solubility pH 4.0.
The mark [13] stands for this setting: glycylglycine buffer, pH 4, pH 4.0, read-out: Solubility pH 4.0.
Where [14] appears, read: glycylglycine buffer, pH 5, pH 5.0, read-out: Solubility pH 5.0.

One may read the pEC50 as the EC50 on a negative log10 scale, so that one unit is a factor of ten. As a reminder, the solubility is the concentration that dissolves in the medium under given conditions. Take `CC[C@H](C)[C@H](NC(=O)[C@@H]1CCCN1C(=O)CNC(=O)[C@H](Cc1ccccc1)NC(=O)[C@H](CC(N)=O)NC(=O)[C@H](CC(N)=O)NC(=O)[C@H](CO)NC(=O)[C@H](CO)NC(=O)[C@H](CCCNC(=N)N)NC(=O)[C@H](Cc1c[nH]cn1)NC(=O)[C@H](CC(C)C)NC(=O)[C@H](Cc1ccccc1)NC(=O)[C@H](CCC(=O)O)NC(=O)[C@H](C)NC(=O)[C@H](CC(C)C)NC(=O)[C@H](CCCNC(=N)N)NC(=O)[C@H](CCC(N)=O)NC(=O)[C@@H](NC(=O)[C@H](C)NC(=O)[C@@H]1CSSC[C@H](NC(=O)[C@H](CCCCN)NC(=O)CC[C@H](NC(=O)CCCCCCCCCCCCCCCCCCC(=O)O)C(=O)O)C(=O)N[C@@H](CC(N)=O)C(=O)N[C@@H]([C@@H](C)O)C(=O)N[C@@H](C)C(=O)N[C@@H]([C@@H](C)O)C(=O)N1)[C@@H](C)O)C(=O)N[C@@H](CC(C)C)C(=O)N1CCC[C@H]1C(=O)N1CCC[C@H]1C(=O)N[C@H](C(=O)N[C@@H](CC(N)=O)C(=O)N[C@H](C(=O)NCC(=O)N[C@@H](CO)C(=O)N[C@@H](Cc1c[nH]cn1)C(=O)N[C@H](C(=O)N[C@@H](Cc1ccc(O)cc1)C(N)=O)[C@@H](C)O)C(C)C)[C@@H](C)O` [Example 78, N-alpha-[(S)-4-Carboxy-4-(19-carboxynonadecanoylamino)butyryl]-[Glu14,His17,Arg18,His35]-pramlintide] ({C20 diacid-γGlu}-KCNTATCATQRLAEFLHRSSNNFGPILPPTNVGSHTY-NH2; disulfide 2-7 (inferred); C-terminus assumed): the pEC50 in data set [1] was 10.02; in data set [2], 10.16. In addition, the “ThT pH 4.0 lag time” value in data set [3] is listed as above 45 h. The “ThT pH 4.0 lag time (h)” value in data set [3] was above 45 h. For the same compound, the solubility at 18 h in data set [4] (setting [5]) is above 200 µM; in data set [4] (setting [6]), above 200 µM; in data set [4] (setting [7]), 122 µM (≈ 549 µg/mL); in data set [4] (setting [8]), 122 µM (≈ 549 µg/mL); in data set [4] (setting [9]), 92 µM (≈ 414 µg/mL); in data set [4] (setting [10]) it was 79 µM (≈ 355 µg/mL). The solubility at 18 h in data set [4] (setting [11]), in data set [4] (setting [12]), in data set [4] (setting [13]) and in data set [4] (setting [14]) was above 200 µM each time.

On to `CC[C@H](C)[C@H](NC(=O)[C@@H]1CCCN1C(=O)CNC(=O)[C@H](Cc1ccccc1)NC(=O)[C@H](CC(N)=O)NC(=O)[C@H](CC(N)=O)NC(=O)[C@H](CO)NC(=O)[C@H](CO)NC(=O)[C@H](Cc1c[nH]cn1)NC(=O)[C@H](Cc1c[nH]cn1)NC(=O)[C@H](CC(C)C)NC(=O)[C@H](Cc1ccccc1)NC(=O)[C@H](CCC(=O)O)NC(=O)[C@H](C)NC(=O)[C@H](CC(C)C)NC(=O)[C@H](CCCNC(=N)N)NC(=O)[C@H](CCC(N)=O)NC(=O)[C@@H](NC(=O)[C@H](C)NC(=O)[C@@H]1CSSC[C@H](NC(=O)[C@H](CCCCN)NC(=O)[C@H](CCC(=O)O)NC(=O)CC[C@H](NC(=O)CCCCCCCCCCCCCCCCC(=O)O)C(=O)O)C(=O)N[C@@H](CC(N)=O)C(=O)N[C@@H]([C@@H](C)O)C(=O)N[C@@H](C)C(=O)N[C@@H]([C@@H](C)O)C(=O)N1)[C@@H](C)O)C(=O)N[C@@H](CC(C)C)C(=O)N1CCC[C@H]1C(=O)N1CCC[C@H]1C(=O)N[C@H](C(=O)N[C@@H](CC(N)=O)C(=O)N[C@H](C(=O)NCC(=O)N[C@@H](CO)C(=O)N[C@@H](Cc1c[nH]cn1)C(=O)N[C@H](C(=O)N[C@@H](Cc1ccc(O)cc1)C(N)=O)[C@@H](C)O)C(C)C)[C@@H](C)O` [Example 60, N-alpha-[(S)-4-Carboxy-4-(17-carboxyheptadecanoylamino)butyryl]-Glu-[Glu14,His17,His35]-pramlintide] ({C18 diacid-γGlu}-EKCNTATCATQRLAEFLHHSSNNFGPILPPTNVGSHTY-NH2; disulfide 3-8), for which the pEC50 was 9.77 in data set [1] and 9.99 in data set [2]. For the same compound, the “ThT pH 4.0 lag time (h)” value in data set [3] turned out to be 10 h. In addition, the solubility at 18 h in data set [4] (setting [5]), in data set [4] (setting [6]), in data set [4] (setting [7]), in data set [4] (setting [8]), in data set [4] (setting [9]) and in data set [4] (setting [10]) was above 200 µM in each case. The solubility at 18 h in data set [4] (setting [11]), in data set [4] (setting [12]), in data set [4] (setting [13]) and in data set [4] (setting [14]) was above 200 µM each time.

Consider `CC[C@H](C)[C@H](NC(=O)[C@@H]1CCCN1C(=O)CNC(=O)[C@H](Cc1ccccc1)NC(=O)[C@H](CC(N)=O)NC(=O)[C@H](CC(N)=O)NC(=O)[C@H](CO)NC(=O)[C@H](CO)NC(=O)[C@H](Cc1c[nH]cn1)NC(=O)[C@H](Cc1c[nH]cn1)NC(=O)[C@H](CC(C)C)NC(=O)[C@H](Cc1ccccc1)NC(=O)[C@H](CCC(=O)O)NC(=O)[C@H](C)NC(=O)[C@H](CC(C)C)NC(=O)[C@H](CCCNC(=N)N)NC(=O)[C@H](CCC(N)=O)NC(=O)[C@@H](NC(=O)[C@H](C)NC(=O)[C@@H]1CSSC[C@H](NC(=O)[C@H](Cc2c[nH]cn2)NC(=O)CNC(=O)CC[C@H](NC(=O)CCCCCCCCCCCCCCCCCCC(=O)O)C(=O)O)C(=O)N[C@@H](CC(N)=O)C(=O)N[C@@H]([C@@H](C)O)C(=O)N[C@@H](C)C(=O)N[C@@H]([C@@H](C)O)C(=O)N1)[C@@H](C)O)C(=O)N[C@@H](CC(C)C)C(=O)N1CCC[C@H]1C(=O)N1CCC[C@H]1C(=O)N[C@H](C(=O)N[C@@H](CC(N)=O)C(=O)N[C@H](C(=O)NCC(=O)N[C@@H](CO)C(=O)N[C@@H](CC(N)=O)C(=O)N[C@H](C(=O)N1CCC[C@H]1C(N)=O)[C@@H](C)O)C(C)C)[C@@H](C)O` [Example 92, N-alpha-[(S)-4-Carboxy-4-(19-carboxynonadecanoylamino)butyryl]-Gly-[His1,Glu14,His17,Pro37]-pramlintide] ({C20 diacid-γGlu}-GHCNTATCATQRLAEFLHHSSNNFGPILPPTNVGSNTP-NH2; disulfide 3-8 (inferred); C-terminus assumed), for which the negative logarithm of the EC50 (pEC50) in data set [1] was 10.31; in data set [2], 10.28. The “ThT pH 4.0 lag time (h)” value in data set [3] is recorded as 15.3 h. The solubility at 18 h in data set [4] (setting [5]), in data set [4] (setting [6]), in data set [4] (setting [7]), in data set [4] (setting [8]), in data set [4] (setting [9]) and in data set [4] (setting [10]) was above 200 µM in each case. Also, the solubility at 18 h in data set [4] (setting [11]), in data set [4] (setting [12]), in data set [4] (setting [13]) and in data set [4] (setting [14]) was above 200 µM throughout.
